≈ marks a conversion by molar mass, not a printed value. Calls of active or inactive are those of the source. No cut-off for these calls is given here.
Assays:
[1] = OSM: HEK293 cytotoxicity assay. IC50 values determined from 21 point dose response curves. Avery Group Griffith.; type: toxicity, cell-based; conditions: human, HEK293 cells
[2] = test system: Plasmodium falciparum K1; experiment: OSM: Inhibition of Plasmodium falciparum K1 growth. IC50 values determined from 21 point dose response curves. Avery Group Griffith.; type: functional, organism-based
[3] = test system: Plasmodium falciparum; experiment: OSM: Inhibition of Plasmodium falciparum 3D7 growth. IC50 values determined from 21 point dose response curves. Avery Group Griffith.; type: functional, organism-based
[4] = OSM: HEK293 cytotoxicity assay. Duplicate point single experiment at 120 uM. Avery Group, Griffith.; type: toxicity, cell-based; conditions: human, HEK293 cells; read-out: Inhibition
[5] = test system: Plasmodium falciparum; experiment: OSM: Percent inhibition of Plasmodium falciparum 3D7 growth at 120 uM. Avery Group Griffith.; type: functional
[6] = test system: Plasmodium falciparum K1; experiment: OSM: Percent inhibition of Plasmodium falciparum K1 growth at 120 uM. Avery Group Griffith.; type: functional
[7] = test system: Plasmodium falciparum K1; experiment: OSM: CSIR assay K1: Compounds were tested for inhibition of Plasmodium falciparum growth using a SYBR green I fluorescence based assay.; type: functional, organism-based
[8] = test system: Plasmodium falciparum; experiment: OSM: CSIR assay 3D7: Compounds were tested for inhibition of Plasmodium falciparum growth using a SYBR green I fluorescence based assay.; type: functional, organism-based
[9] = test system: Plasmodium falciparum; experiment: OSM: Inhibition of Plasmodium falciparum 3D7 growth using a SYBR green I fluorescence based assay. Dose response curves were generated comprising of 8 points using a 2-fold serial dilution for the maximum final concentration of 1000 nM. Ralph Group, Bio21.; type: functional, organism-based
[10] = test system: Plasmodium falciparum; experiment: OSM: Inhibition of Plasmodium falciparum 3D7 growth using a SYBR green I fluorescence based assay. GSK Tres Cantos.; type: functional, organism-based
[11] = test system: Plasmodium falciparum; experiment: OSM: Percent inhibition of Plasmodium falciparum 3D7 growth at 40 uM. Avery Group Griffith.; type: functional
[12] = OSM: Kinetic solubility pH 6.5 isotonic phosphate buffer.; type: ADME
[13] = OSM: Microsomal stability: 0.5 uM substrate, 0.4 mg/mL protein, NADPH cofactor. Analysed by LC/MS. Degradation rate classification.; type: ADME, Microsome; conditions: human, microsomes
[14] = target: Voltage-gated inwardly rectifying potassium channel KCNH2 (Homo sapiens, UniProt Q12809); experiment: OSM: hERG, IC50 uM (Essen Bioscience): IonWorks patch clamp electrophysiology. 8 point concentration-response curves were generated using 3-fold serial dilutions from the maximum final assay concentration of 33 uM.; type: functional
Voltage-gated inwardly rectifying potassium channel KCNH2, sequence (Q12809 whole entry): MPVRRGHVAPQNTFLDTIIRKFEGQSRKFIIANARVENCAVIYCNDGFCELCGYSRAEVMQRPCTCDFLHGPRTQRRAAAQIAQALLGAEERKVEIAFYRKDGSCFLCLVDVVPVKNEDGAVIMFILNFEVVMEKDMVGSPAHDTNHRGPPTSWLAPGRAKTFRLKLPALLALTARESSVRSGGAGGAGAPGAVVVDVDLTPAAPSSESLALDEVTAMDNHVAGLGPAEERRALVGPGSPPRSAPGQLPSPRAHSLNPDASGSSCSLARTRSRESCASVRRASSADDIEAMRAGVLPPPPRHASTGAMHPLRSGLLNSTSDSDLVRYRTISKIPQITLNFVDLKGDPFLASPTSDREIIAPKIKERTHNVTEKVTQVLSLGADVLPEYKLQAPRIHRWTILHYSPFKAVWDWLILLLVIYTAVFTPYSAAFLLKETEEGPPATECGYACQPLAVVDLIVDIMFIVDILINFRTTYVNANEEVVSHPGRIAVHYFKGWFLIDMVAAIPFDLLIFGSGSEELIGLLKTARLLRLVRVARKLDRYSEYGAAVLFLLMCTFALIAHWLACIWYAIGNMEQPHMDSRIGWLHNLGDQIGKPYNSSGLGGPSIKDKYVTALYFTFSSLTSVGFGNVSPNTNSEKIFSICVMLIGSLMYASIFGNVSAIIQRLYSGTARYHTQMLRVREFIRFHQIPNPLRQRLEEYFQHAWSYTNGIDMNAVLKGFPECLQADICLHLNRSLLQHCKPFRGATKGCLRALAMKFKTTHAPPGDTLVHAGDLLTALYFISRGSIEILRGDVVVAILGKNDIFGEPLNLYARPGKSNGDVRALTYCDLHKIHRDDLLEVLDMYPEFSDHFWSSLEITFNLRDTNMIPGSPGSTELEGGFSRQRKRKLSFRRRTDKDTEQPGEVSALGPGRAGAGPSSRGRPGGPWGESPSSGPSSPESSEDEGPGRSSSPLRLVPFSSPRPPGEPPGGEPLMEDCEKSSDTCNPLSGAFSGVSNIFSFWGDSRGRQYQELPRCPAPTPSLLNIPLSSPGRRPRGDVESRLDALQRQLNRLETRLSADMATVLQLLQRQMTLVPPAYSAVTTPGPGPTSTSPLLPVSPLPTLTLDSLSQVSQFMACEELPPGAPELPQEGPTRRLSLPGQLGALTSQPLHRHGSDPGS

[15] = test system: Plasmodium berghei; experiment: OSM: Mice are infected intravenously with parasitized red blood cells on day 0 (2 x 10^7 parasitized erythrocytes per ml). Experimental mice are generally treated at 4, 24, 48, and 72 hours post-infection with an oral dose of the compound (50 mg/kg, 4-day test by Peters) and are compared to an infected control group for reduction in parasitaemia on day 4 (96 hours post-infection) as a percentage.; type: functional, organism-based; conditions: Mus musculus; Swiss; Plasma
[16] = OSM: Microsomal stability: 0.5 uM substrate, 0.4 mg/mL protein, NADPH cofactor). Analysed by LC/MS. In vitro CLint (uL/min/mg protein).; type: ADME, Microsome; conditions: human, microsomes
[17] = OSM: Kinetic solubility pH 2 0.01 M HCl ug/mL.; type: ADME
[18] = OSM: Microsomal stability: 0.5 uM substrate, 0.4 mg/mL protein, NADPH cofactor. Analysed by LC/MS. Degradation half life (min).; type: ADME, Microsome; conditions: human, microsomes
[19] = test system: Plasmodium falciparum; experiment: OSM: Late stage gametocytes. IC50 values determined from 21 point dose response curves. Avery Group Griffith.; type: functional, organism-based; conditions: Pfs16-GFP transgenic NF54

For CCc1nc(N)nc(N)c1-c1ccc(Cl)cc1 [PYRIMETHAMINE], the IC50 [1] was 13900 nM, the IC50 [2] was 11900 nM and the IC50 [3] was 8.95 nM.

In the case of Cc1cc(C(=O)O)c(C)n1-c1ccccc1, the cytotoxicity at 120 µM [4] is reported as 0%, the inhibition at 120 µM [5] is reported as 70% and the inhibition at 120 µM [6] is reported as 50%.

Cc1cc(/C=C2\S/C(=N\c3ccccc3)N(c3ccccc3)C2=O)c(C)n1-c1cccc(F)c1 gave an IC50 [7] of over 5000 nM and an IC50 [8] of 3200 nM.

In the case of CCOC(=O)c1cc(C)n(-c2ccccc2)c1C, the cytotoxicity at 120 µM [4] is reported as 0%, the inhibition at 120 µM [5] is reported as 80% and the inhibition at 120 µM [6] is reported as 0%.

Cc1cc(/C=C2\S/C(=N\c3ccccc3)N(CC#N)C2=O)c(C)n1-c1ccc(C(F)(F)F)cc1 showed an IC50 [9] of over 1000 nM, an IC50 [10] of over 5000 nM and an IC50 [3] of 3120 nM.

Cc1cc(/C=C2\S/C(=N\c3ccccc3)NC2=O)c(C)n1-c1ccccn1 gave an IC50 [9] of 442 nM, an IC50 [10] of 309 nM and an IC50 [3] of 307 nM.

Compound CCOC(=O)c1ccc(-n2c(C)cc(/C=C3\S/C(=N/c4ccccc4)NC3=O)c2C)cc1 has an IC50 [9] of 339 nM, an IC50 [10] of 267 nM and an IC50 [3] of 169 nM.

With Cc1cc(CN2CCCC2)c(C)n1-c1ccc(F)cc1 the inhibition at 40 µM [11] was 96%.

In the case of Cc1cc(C(=O)OCC(N)=O)c(C)n1-c1ccc(F)cc1, the cytotoxicity at 120 µM [4] is reported as 20%, the solubility kinetic [12] is reported as 50 µg/mL (≈ 172 µM) and the IC50 [10] is reported as 818 nM. For the same compound, the IC50 [7] was 641 nM, the IC50 [8] was 581 nM and the Relative metabolic rate [13] was “Moderate”. For the same compound, the IC50 [14] was over 33000 nM, the IC50 [2] was 375 nM and the Reduced_parasitemia [15] was “inactive”. It also gave a microsomal CLint at 0.5 µM [16] of 29 µL/min/mg, a solubility kinetic [17] of 50 µg/mL (≈ 172 µM) and a half-life at 0.5 µM [18] of 59 min. The IC50 [3] was 404 nM.

Cc1cc(/C=C2\S/C(=N\c3ccccc3)NC2=O)c(C)n1-c1cc(C(F)(F)F)cc(C(F)(F)F)c1 showed an IC50 [9] of 5 nM, a solubility kinetic [12] of 4 µg/mL (≈ 7.85 µM) and an IC50 [10] of 7 nM. For the same compound, the Relative metabolic rate [13] was “Low”, the IC50 [19] was 3 nM and the microsomal CLint at 0.5 µM [16] was under 7 µL/min/mg. The half-life at 0.5 µM [18] was over 250 min and the IC50 [3] was 1 nM.

Compound Cc1cc(C(=O)OCC(=O)Nc2c(C)n(C)n(-c3ccccc3)c2=O)c(C)n1-c1ccc(F)cc1 has a cytotoxicity at 120 µM [4] of 20%, a solubility kinetic [12] of 12.5 µg/mL (≈ 26.2 µM) and an IC50 [10] of 245 nM. For the same compound, the Relative metabolic rate [13] was “Moderate”, the IC50 [2] was 152 nM and the Reduced_parasitemia [15] was “inactive”. It also gave a microsomal CLint at 0.5 µM [16] of 60 µL/min/mg, a solubility kinetic [17] of 12.5 µg/mL (≈ 26.2 µM) and a half-life at 0.5 µM [18] of 29 min. For the same compound, the IC50 [3] was 345 nM.

Work on Cc1cc(C(=O)NCC(=O)Nc2c(C)n(C)n(-c3ccccc3)c2=O)c(C)n1-c1ccc(F)cc1 yielded an IC50 [9] of over 1000 nM, an IC50 [10] of over 5000 nM and an IC50 [3] of 31000 nM.

For CCOC(=O)c1cc(C)n(-c2ccc(F)cc2)c1C, the cytotoxicity at 120 µM [4] was 25%, the IC50 [10] was over 5000 nM and the IC50 [2] was 12400 nM. For the same compound, the IC50 [3] was 12000 nM.

Work on C[C@@H]1CC[C@H]2[C@@H](C)C(=O)O[C@@H]3O[C@@]4(C)CC[C@@H]1[C@]32OO4 [ARTEMISININ] yielded a cytotoxicity at 120 µM [4] of 25%, an IC50 [2] of 1 nM and an IC50 [3] of 41100 nM.

Compound CC(=O)N(C1=NC(=O)/C(=C/c2cc(C)n(-c3ccccc3)c2C)S1)c1ccccc1 has an IC50 [9] of 28 nM, an IC50 [10] of 85 nM and an IC50 [3] of 63 nM.

With Cc1cc(/C=C2\S/C(=N\c3ccccc3)NC2=O)c(C)n1-c1ccc(F)cc1 the cytotoxicity at 120 µM [4] was 25%, the solubility kinetic [12] was 1 µg/mL (≈ 2.55 µM) and the Relative metabolic rate [13] was “Moderate”. The IC50 [2] was 361 nM, the microsomal CLint at 0.5 µM [16] was 15 µL/min/mg and the half-life at 0.5 µM [18] was 92 min. The IC50 [3] was 176 nM.

Compound Cc1cccc(-n2c(C)cc(C(=O)N(C)CC(=O)Nc3cc(C)on3)c2C)c1 has an inhibition at 40 µM [11] of 85%.

Compound Cc1cc(/C=C2\SC(=Nc3ccccc3)NC2=O)c(C)n1-c1ccccc1 has an IC50 [9] of 11 nM, an IC50 [10] of 36 nM and an IC50 [14] of over 33000 nM. For the same compound, the Reduced_parasitemia [15] was “inactive” and the IC50 [3] was 26 nM.

CNC(=O)CN(C)C(=O)c1cc(C)n(-c2ccc(Br)cc2)c1C gave an inhibition at 40 µM [11] of 70%.

Compound COc1cc(C)c2c(Oc3cccc(C(F)(F)F)c3)c(OC)cc(NC(C)CCCN)c2n1 (configuration not stated) [TAFENOQUINE] has an IC50 [19] of 2800 nM.

CCN(CC)CCCC(C)Nc1ccnc2cc(Cl)ccc12 (configuration not stated) [CHLOROQUINE] showed a cytotoxicity at 120 µM [4] of 100%, an IC50 [7] of 235 nM and an IC50 [2] of 266 nM.

CC[C@H](C)[C@H](NC(=O)[C@H]([C@@H](C)CC)N(C)C(C)=O)C(=O)N[C@H](C(=O)N[C@@H](CC(C)C)C(=O)[C@@]1(C)CO1)[C@@H](C)O [EPOXOMYCIN] showed an IC50 [1] of 33.6 nM, an IC50 [19] of 0.3 nM and an IC50 [2] of 2.8 nM. For the same compound, the IC50 [3] was 4.2 nM.

Reference: ChEMBL document CHEMBL2113921, “Open Source Malaria Deposition 1. http://malaria.ourexperiment.org” (2013)
